Assay results from publication PMC6270326, “The Novel [4,5-e][1,3]Diazepine-4,8-dione and Acyclic Carbamoyl Imino-Ureido Derivatives of Imidazole: Synthesis, Anti-Viral and Anti-Tumor Activity Evaluations” (Molecules, 2013).

Experiments:
[1] = test system: MCF-7 (breast epithelial adenocarcinoma, metastatic); experiment: Proliferation assay (MTT), MCF-7; type: cell-based; conditions: Homo sapiens, MCF7, 72 h incubation, read-out: Tumor cell growth IC50, MCF-7
Experimental: (§1) The cell lines HeLa (cervical carcinoma), SW620 (colorectal adenocarcinoma, metastatic), MCF-7 (breast epithelial adenocarcinoma, metastatic), HepG2 (hepatocellular carcinoma) and BJ (normal diploid human fibroblasts), were cultured as monolayers and maintained in Dulbecco’s modified Eagle medium (DMEM) supplemented with 10% fetal bovine serum (FBS), 2 mM L-glutamine, 100 U/mL penicillin and 100 μg/mL streptomycin in a humidified atmosphere with 5% CO2 at 37 °C.
(§2) The panel cell lines were inoculated onto a series of standard 96-well microtiter plates on day 0, at 3,000 to 5,000 cells per well according to the doubling times of specific cell line. Test agents were then added in 10-fold dilutions (0,01 to 100 µM) and incubated for further 72 h. Working dilutions were freshly prepared on the day of testing in the growth medium. The solvent (DMSO) was also tested for eventual inhibitory activity by adjusting its concentration to be the same as in the working concentrations (DMSO concentration never exceeded 0.1%). After 72 h of incubation, the cell growth rate was evaluated by performing the MTT assay: experimentally determined absorbance values were transformed into a cell percentage growth (PG) using the formulas proposed by NIH and described previously. This method directly relies on control of untreated cells at the day of substances addition because it compares the growth of treated cells with the growth of untreated cells in control wells on the same plate—the results are therefore a percentile difference from the calculated expected value. […] If, however, all of the tested concentrations produce PGs exceeding the respective reference level of effect (e.g., PG value of 50) for a given cell line, the highest tested concentration is assigned as the default value (in the screening data report that default value is preceded by a “>” sign). Each test point was performed in quadruplicate in three individual experiments. The results were statistically analyzed (ANOVA, Tukey post-hoc test at p < 0.05). Finally, the effects of the tested substances were evaluated by plotting the mean percentage growth for each cell type in comparison to control on dose response graphs.

[2] = test system: HepG2 (hepatocellular carcinoma); experiment: Proliferation assay (MTT), HepG2; type: cell-based; conditions: Homo sapiens, 72 h incubation, read-out: Tumor cell growth IC50, HepG2
Experimental: as §1, §2

[3] = test system: SW620 (colorectal adenocarcinoma, metastatic); experiment: Proliferation assay (MTT), SW620; type: cell-based; conditions: Homo sapiens, SW-620, 72 h incubation, read-out: Tumor cell growth IC50, SW620
Experimental: as §1, §2

[4] = test system: HeLa (cervical carcinoma); experiment: Proliferation assay (MTT), HeLa; type: cell-based; conditions: Homo sapiens, 72 h incubation, read-out: Tumor cell growth IC50, HeLa
Experimental: as §1, §2

[5] = test system: BJ (normal diploid human fibroblasts); experiment: Proliferation assay (MTT), BJ normal fibroblasts; type: cell-based; conditions: for Cytotoxicity on human normal fibroblasts (BJ): in words; for IC50: Fibroblast, BJ normal human skin fibroblasts, 72 h incubation, MTT, read-out: Cell growth IC50, BJ
Experimental: as §1, §2

[6] = test system: HeLa, SW620, MCF-7, HepG2 and BJ cell lines; experiment: Proliferation assay (MTT), whole panel of cell lines; type: cell-based, human; conditions: in words
Experimental: as §1
The panel cell lines were inoculated onto a series of standard 96-well microtiter plates on day 0, at 3,000 to 5,000 cells per well according to the doubling times of specific cell line. Test agents were then added in 10-fold dilutions (0,01 to 100 µM) and incubated for further 72 h. […] After 72 h of incubation, the cell growth rate was evaluated by performing the MTT assay: experimentally determined absorbance values were transformed into a cell percentage growth (PG) using the formulas proposed by NIH and described previously. This method directly relies on control of untreated cells at the day of substances addition because it compares the growth of treated cells with the growth of untreated cells in control wells on the same plate—the results are therefore a percentile difference from the calculated expected value. […] The results were statistically analyzed (ANOVA, Tukey post-hoc test at p < 0.05). […]

Row | SMILES | IC50 [1] [µM] | IC50 [2] [µM] | IC50 [3] [µM] | IC50 [4] [µM] | melting point [°C] | Cytotoxicity on human normal fibroblasts (BJ) [5] | IC50 [5] [µM] | Antiproliferative effect on tested cell lines [6]
1 | COC(=O)c1ncn(CCN2CCOCC2)c1C(=O)OC [Compound 1, 1-(2-Morpholin-4-yl-ethyl)-1H-imidazole-4,5-dicarboxylic acid dimethyl ester] | > 100 | > 100 | > 100 | 24 | – | no concomitant cytotoxic effects | > 100 | –
2 | COC(=O)c1ncn(CCN2CCCC2)c1C(=O)OC [Compound 3, 1-(2-Pyrrolidin-1-yl-ethyl)-1H-imidazole-4,5-dicarboxylic acid dimethyl ester] | > 100 | > 100 | > 100 | 9.5 | – | no apparent cytotoxicity | > 100 | –
3 | COC(=O)c1ncn(CCCN(C)C)c1C(=O)OC [Compound 4, 1-(3-Dimethylamino-propyl)-1H-imidazole-4,5-dicarboxylic acid dimethyl ester] | > 100 | > 100 | > 100 | > 100 | – | – | > 100 | –
4 | NC(=O)c1ncn(CCN2CCOCC2)c1C(N)=O [Compound 5, 1-(2-Morpholin-4-yl-ethyl)-1H-imidazole-4,5-dicarboxylic acid diamide] | > 100 | > 100 | > 100 | 32 | 196 to 197 | no concomitant cytotoxic effects | > 100 | –
5 | CN(C)CCCn1cnc(C(N)=O)c1C(N)=O [Compound 8, 1-(3-Dimethylamino-propyl)-1H-imidazole-4,5-dicarboxylic acid diamide] | > 100 | > 100 | > 100 | > 100 | 205 to 210 | – | > 100 | –
6 | N=c1[nH]c(=O)c2ncn(CCN3CCCCC3)c2c(=O)[nH]1 [Compound 10, 6-Imino-1-(2-piperidin-1-yl-ethyl)-6,7-dihydro-1H,5H-1,3,5,7-tetraaza-azulene-4,8-dione] | > 100 | 41 | 31 | 31 | > 300 | – | > 100 | moderate non-selective antiproliferative activity
7 | COC(=O)c1ncn(CCN2CCOCC2)c1C(=O)NC(=N)NC(=O)Nc1ccccc1F [Compound 12, 5-({[3-(2-Fluoro-phenyl)-ureido]-imino-methyl}-carbamoyl)-1-(2-morpholin-4-yl-ethyl)-1H-imidazole-4-carboxylic acid methyl ester] | > 100 | > 100 | > 100 | > 100 | > 164 | – | > 100 | –

The next lines start with results.

Row | IC50 [1] [µM] | IC50 [2] [µM] | IC50 [3] [µM] | IC50 [4] [µM] | melting point [°C] | SMILES | Cytotoxicity on human normal fibroblasts (BJ) [5] | IC50 [5] [µM] | Antiproliferative effect on tested cell lines [6]
8 | > 100 | > 100 | > 100 | > 100 | – | COC(=O)c1ncn(CCN2CCCCC2)c1C(=O)OC [Compound 2, 1-(2-Piperidin-1-yl-ethyl)-1H-imidazole-4,5-dicarboxylic acid dimethyl ester] | – | > 100 | –
9 | > 100 | > 100 | > 100 | > 100 | 200 to 201 | NC(=O)c1ncn(CCN2CCCCC2)c1C(N)=O [Compound 6, 1-(2-Piperidin-1-il-etil)-1H-imidazol-4,5-diamide] | – | > 100 | –
10 | > 100 | > 100 | > 100 | > 100 | > 300 | N=c1[nH]c(=O)c2ncn(CCN3CCOCC3)c2c(=O)[nH]1 [Compound 9, 6-Imino-1-(2-morpholin-4-yl-ethyl)-6,7-dihydro-1H,5H-1,3,5,7-tetraaza-azulene-4,8-dione] | – | > 100 | –
11 | > 100 | > 100 | 20 | > 100 | – | N=c1[nH]c(=O)c2ncn(CCN3CCCC3)c2c(=O)[nH]1 [Compound 11, 6-Imino-1-(2-pyrrolidin-1-yl-ethyl)-6,7-dihydro-1H,5H-1,3,5,7-tetraaza-azulene-4,8-dione] | – | > 100 | –
